Data as given in paper PMC11684029, “Discovery of VU6024578/BI02982816: An mGlu1 Positive Allosteric Modulator with Efficacy in Preclinical Antipsychotic and Cognition Models” (Journal of Medicinal Chemistry, 2024).
Entries after “also recorded” stand apart in the source; their conditions may differ.

Assays:
[1] = glutathione trapping of reactive intermediates; assay type: in vitro ADME
Method: Across species, 19d had acceptable fraction unbound in both plasma (fu (plasma): 0.03 (human), 0.041 (rat), 0.025 (cyno), 0.039 (dog) and 0.056 (mouse)) and brain (fu (brain): 0.034 (rat) and 0.081 (mouse)).
In Vitro Glutathione Conjugates of 19d
Figure S1. 19d was incubated in rat and human liver microsomes for 1 hr (with and without
NADPH) with 20 µM glutathione.
conjugates, most likely due to reactive intermediate formation from the 2-furanyl southern […]

C57BL/6JRj mice = assay: 40 Hz ASSR, MK-801 induced deficit; assay type: in vivo; settings: mouse
Source text: We have also employed here event-related potentials (ERPs) and auditory-evoked oscillations, which serve as critical translational biomarkers, to assess the impact of our investigational drug on sensory processing and cognitive functions, providing valuable data on its potential efficacy in treating disorders like schizophrenia. Detailed description of the methodology, setup specifications and recording procedure and analysis of the 40 Hz auditory steady-state response (ASSR) protocol can be found in Schuelert et al.[27] […] Reduced entrainment of gamma oscillation reflects abnormalities in basic sensory registration and processing but is also associated with impaired higher cognitive functions.[32] ASSR can also be reliably impaired preclinically by different NMDA receptor antagonists.[33],[34] […] Abnormalities associated with the filtering or “gating” of sensory information are among the most consistent findings in schizophrenia research.[35] N100 gating deficits also correlated with negative-cognitive deficits dimensions of schizophrenia[36] and can be modeled preclinically with NMDA receptor antagonists.[37]19d reversed N1 sensory gating deficit induced by MK-801 with the highest dose of 10 mg/kg (Figure 12B). Mean plasma exposures in satellite mice after subcutaneous administration of 19d at 0.8, 4, and 10 mg/kg were 187, 1207, and 2490 nM, respectively.
The mGlu2/3 selective agonist LY379268 was used here as a positive control, applied also s.c. at 3 mg/kg dose. […] Data are shown as mean ± SEM (n = 13–19 for each treatment group). *P < 0.05, **P < 0.01, ***P < 0.005 compared with vehicle; #P < 0.05, ##P < 0.01 compared with MK-801. […]
Mice were placed in a plexiglass cage in an attenuated sound box and allowed to adapt to their environment for 20 min before subcutaneous administration of VU6024578 0.8, 4, and 10 mg/kg or vehicle (20% HP-β-CD in water). […] An infrared sensor on the Neurologger recorded the infrared trigger signals and trigger signals were saved in an individual trigger channel. […]

Wistar rats = assay: qEEG telemetry recordings; assay type: in vivo; settings: rat
Method: These effects were most pronounced between 30 and 120 min post treatment (Figure 11C).
Data are expressed as mean ± SEM and were analyzed by one- and two-way ANOVA followed by Dunnett’s Multiple Comparisons tests (*p < 0.05, **p < 0.01, ***p < 0.001 versus vehicle).
Wistar rats using a telemetry system (Data Sciences International DSI, USA).[20] Telemetric transmitters (F40-EET, Data Sciences International DSI, USA) were implanted intraperitoneally into male Wistar rats. EEG electrodes were placed supradurally above the hippocampus and two more electrodes were implanted into the neck muscle in order to measure the electromyography (EMG) signal required for differentiation between different vigilance states. Telemetric EEG recordings were performed during the light phase in the rats’ home cage environment. EEG activity was sampled at 500 Hz with a hardware filter cutoff of 50 Hz. Data were recorded continuously for 24 h, but only 1 h before compound treatment (baseline), the first 4 h after compound treatment plus an additional hour (+24 h time point) have been analyzed. Effects of treatment with 19d (1, 10 mg/kg, p.o., n = 14, applied 2 h after starting the recording) were determined on motor activity, body temperature, vigilance states and EEG power spectra using the EEG analysis software NeuroScore (Data Sciences International DSI, USA). The rats were tested in a crossover study design with a two-day washout period between two treatments.[20]

Cn1nc(-c2ccnn2C)cc1CNC(=O)c1cc(-c2ccco2)ccc1Cl [Compound 19d, 2-Chloro-N-((1,2′-dimethyl-1H,2’H-[3,3′-bipyrazol]-5-yl)methyl)-5-(furan-2-yl)benzamide]
glutathione conjugates ([1]; human liver microsomes with glutathione): multiple glutathione; also recorded: a number of minor glutathione conjugates with four involving the furanyl ring | glutathione conjugates ([1]; rat liver microsomes with glutathione): multiple glutathione; also recorded: a number of minor glutathione conjugates with four involving the furanyl ring | reversal of MK-801 deficit in 40 Hz ASSR intertrial coherence (PFC) (C57BL/6JRj mice; 0.8 mg/kg s.c.): no significant effect | reversal of MK-801 deficit in 40 Hz ASSR intertrial coherence (PFC) (C57BL/6JRj mice; 4 mg/kg s.c.): complete reversal | reversal of MK-801 deficit in 40 Hz ASSR intertrial coherence (PFC) (C57BL/6JRj mice; 10 mg/kg s.c.): complete reversal | body temperature (Wistar rats; 10 mg/kg p.o.): no measurable changes | EEG power spectra (Wistar rats; 10 mg/kg p.o., 60 to 240 min post treatment): consistent reduction of delta, alpha and beta power | motor activity (Wistar rats; 10 mg/kg p.o., maximum within first 120 min): significantly increased | time spent in NREM and REM sleep (Wistar rats; higher dose (10 mg/kg p.o.)): reduction | time spent in active and quiet wake states (Wistar rats; higher dose (10 mg/kg p.o.)): significant increase
